Measurements as given in BindingDB's records for doi:10.1016/j.bmcl.2005.03.003 (Gsk, 2005).
pIC50: −log10 of the molar value.

Molecular target: T1, Phenylalanine--tRNA ligase alpha/beta subunit (Staphylococcus aureus, UniProt P68849+Q9AGR3)
T1 sequence (P68849 whole entry): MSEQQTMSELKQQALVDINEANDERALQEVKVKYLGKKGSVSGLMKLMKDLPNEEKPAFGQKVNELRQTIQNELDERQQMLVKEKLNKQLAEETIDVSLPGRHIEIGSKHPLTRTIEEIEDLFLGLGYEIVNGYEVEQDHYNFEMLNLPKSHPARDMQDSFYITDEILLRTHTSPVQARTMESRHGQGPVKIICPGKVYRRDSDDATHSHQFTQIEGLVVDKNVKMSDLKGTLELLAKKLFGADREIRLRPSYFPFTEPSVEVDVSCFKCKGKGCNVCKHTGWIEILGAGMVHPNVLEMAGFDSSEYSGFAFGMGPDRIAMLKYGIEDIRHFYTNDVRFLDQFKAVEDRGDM
T1 sequence (Q9AGR3 whole entry): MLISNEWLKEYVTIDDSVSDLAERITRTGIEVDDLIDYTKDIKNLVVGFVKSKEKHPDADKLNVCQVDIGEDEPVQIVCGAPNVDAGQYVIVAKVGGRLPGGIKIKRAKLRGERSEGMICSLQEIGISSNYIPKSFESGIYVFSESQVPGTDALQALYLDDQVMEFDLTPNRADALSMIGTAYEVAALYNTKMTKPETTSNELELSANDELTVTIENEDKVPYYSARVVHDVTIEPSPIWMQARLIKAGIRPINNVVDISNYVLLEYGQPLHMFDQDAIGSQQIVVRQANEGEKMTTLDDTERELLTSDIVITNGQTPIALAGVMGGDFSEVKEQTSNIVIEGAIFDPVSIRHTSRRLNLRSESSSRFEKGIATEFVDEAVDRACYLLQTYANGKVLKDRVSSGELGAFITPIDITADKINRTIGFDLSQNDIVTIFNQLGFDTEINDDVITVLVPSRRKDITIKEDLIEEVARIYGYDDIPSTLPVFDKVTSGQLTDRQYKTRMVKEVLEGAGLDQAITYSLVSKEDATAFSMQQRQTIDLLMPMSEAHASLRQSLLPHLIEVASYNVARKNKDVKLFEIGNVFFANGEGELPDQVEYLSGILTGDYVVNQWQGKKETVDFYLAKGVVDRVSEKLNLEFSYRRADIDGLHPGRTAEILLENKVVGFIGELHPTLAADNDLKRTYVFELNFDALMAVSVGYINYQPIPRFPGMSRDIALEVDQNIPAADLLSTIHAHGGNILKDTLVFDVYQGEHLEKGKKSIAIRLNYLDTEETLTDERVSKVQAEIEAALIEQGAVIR
Assay: Homogeneous Enzyme Assay with SPA Beads
Protocol: The reactions were performed in […] 384-well Packard Optiplates. After 10 min of incubation, the reaction was stopped by addition of a continuously shaken suspension of YSi SPA beads at pH 2. Under acidic conditions, SPA beads bind tRNA aggregates, while radiolabeled amino acid substrate remains in solution. The beads were allowed to settle for at least 45 min and the plates were counted in a microplate scintillation counter TopCount (Packard).

Compound | pIC50 (pH 7.9, 37 °C) | pIC50 (pH 2)
OC(CNCc1ccccc1N1CCOCC1)c1cccc(C(F)(F)F)c1 (configuration not stated) [2-({[2-(morpholin-4-yl)phenyl]methyl}amino)-1-[3-(trifluoromethyl)phenyl]ethan-1-ol] | < 5.00 | –
O=C(O)CCCOc1ccccc1CNCC(O)c1cc(Br)cs1 (configuration not stated) [4-[2-({[2-(4-bromothiophen-2-yl)-2-hydroxyethyl]amino}methyl)phenoxy]butanoic acid] | – | 7.37
